Data reported in PubChem BioAssay (NCI).
Where “and” joins values, the source holds several entries; their conditions need not be identical. Identical values can stand only once.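 Dose response: 5 concentrations. Exposure: 48 h. Format: 96-well plates. Endpoint: linear interpolation; highest concentration if not reached. GI50 = concentration required for 50% inhibition of growth. TGI denotes the concentration required for complete inhibition of growth.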

Columns and labels:
Assay in all cases: inhibition of tumour cell growth, NCI panel, 48 h
NCI/ADR-RES ovarian = system: NCI/ADR-RES ovarian
MALME-3M melanoma = system: MALME-3M melanoma
CCRF-CEM leukemia = system: CCRF-CEM leukemia
NCI-H23 lung = system: NCI-H23 lung
A498 renal = system: A498 renal
HT29 colon = system: HT29 colon
RPMI-8226 leukemia = system: RPMI-8226 leukemia
NCI-H226 lung = system: NCI-H226 lung
SNB-19 CNS = system: SNB-19 CNS
OVCAR-4 ovarian = system: OVCAR-4 ovarian

SMILES | GI50 (NCI/ADR-RES ovarian) | TGI (NCI/ADR-RES ovarian) | GI50 (MALME-3M melanoma) | TGI (MALME-3M melanoma) | GI50 (CCRF-CEM leukemia) | TGI (CCRF-CEM leukemia) | GI50 (NCI-H23 lung) | TGI (NCI-H23 lung) | GI50 (A498 renal) | GI50 (HT29 colon) | TGI (HT29 colon) | GI50 (RPMI-8226 leukemia) | TGI (RPMI-8226 leukemia) | GI50 (NCI-H226 lung) | TGI (NCI-H226 lung) | GI50 (SNB-19 CNS) | TGI (SNB-19 CNS) | GI50 (OVCAR-4 ovarian) | TGI (OVCAR-4 ovarian) | TGI (A498 renal)
Nc1ncn([C@@H]2S[C@H](CO)[C@@H](O)[C@@H]2F)c(=O)n1 | 0.285 µM | > 100 µM | 5.13 µM | > 100 µM | 0.0399 µM | > 100 µM | 0.347 µM | > 100 µM | 0.267 µM | 2.45 µM | > 100 µM | 22.4 µM | > 100 µM | 9.99 µM | > 100 µM | 0.662 µM | > 100 µM | > 100 µM | > 100 µM | –
Cc1ccc2cnc(N)c(C#Cc3cc(C(=O)Nc4ccc(CN5CCN(C)CC5)c(C(F)(F)F)c4)cnc3C)c2c1 | 1.05 µM | 2.9 µM | 0.146 µM | 0.631 µM | 0.917 µM | 2.85 µM | 0.727 µM | 1.82 µM | 0.837 µM | 0.139 µM | 0.776 µM | 1.01 µM | 2.86 µM | 0.538 µM | 1.74 µM | 0.891 µM | 1.89 µM | 0.436 µM | 8.36 µM | 1.57 µM
COc1ccc2c(c1)C(=O)/C(=C/c1cccc(OCC(=O)c3ccccc3)c1)CC2 | 5.42 µM | 93.9 µM | 28.5 µM | > 100 µM | 2.48 µM | 7.67 µM | 18.9 µM | > 100 µM | 17.3 µM | 9.9 µM | > 100 µM | 2.31 µM | 5.91 µM | 28.6 µM | > 100 µM | 39.6 µM | > 100 µM | 12.5 µM | > 100 µM | 80.8 µM
Cc1ccc(S(=O)(=O)SC/C=C\CSS(=O)(=O)c2ccc(C)cc2)cc1 | – | > 100 µM | – | > 94.9 µM and 43.8 µM | – | 37.6 µM | – | 73.9 µM and 34.7 µM | – | 6.14 µM and 20.3 µM | > 62.8 µM and 39.7 µM | – | 16.5 µM and 47 µM | – | 71.5 µM and 55.2 µM | – | > 89.3 µM and 77.7 µM | 53.1 µM and 20.1 µM | > 100 µM and 41.2 µM | > 100 µM
CCOc1ccccc1CCN=C1NC(=O)/C(=C/c2ccc3ncccc3c2)S1 | 1.28 µM | > 22.7 µM | 3 µM | 10.6 µM | 1.05 µM | 7.12 µM | 2.1 µM | > 25 µM | 0.744 µM | 0.783 µM | 3.16 µM | 1.02 µM | 8.38 µM | 4.32 µM | > 25 µM | 1.46 µM | > 25 µM | 1.36 µM | > 22.9 µM | 12.8 µM
O=C(Oc1cccnc1)c1cccnc1Nc1ccnc(C(F)(F)F)c1 | > 100 µM | > 100 µM | 13 µM | 69.8 µM | 2.49 µM | 10.5 µM | 6.38 µM | > 100 µM | 19.6 µM | 30.8 µM | > 100 µM | 3.94 µM | 23.7 µM | 12.3 µM | 71.4 µM | 48.9 µM | > 100 µM | > 100 µM | > 100 µM | 41 µM
O=C(NCC1CC1)c1ccc(-c2cccc(C(=O)NC3CC3)c2)cc1 | > 25 µM | > 25 µM | > 25 µM | > 25 µM | > 25 µM | > 25 µM | > 25 µM | > 25 µM | > 15.8 µM | > 25 µM | > 25 µM | > 25 µM | > 25 µM | > 25 µM | > 25 µM | > 25 µM | > 25 µM | > 25 µM | > 25 µM | > 25 µM
CCc1c2c(nc3ccc(OCc4ccc(B(O)O)cc4)cc13)-c1cc3c(c(=O)n1C2)COC(=O)[C@]3(O)CC | 0.0766 µM | – | 0.0576 µM | 1.59 µM | < 0.01 µM | > 100 µM | < 0.01 µM | 0.304 µM | 0.0128 µM | 0.286 µM | > 37.7 µM | 0.184 µM | > 100 µM | 0.0187 µM | 0.339 µM | < 0.01 µM | > 39.6 µM | 0.399 µM | 29.7 µM | 0.21 µM
